For this test, the target named is SaeR (response regulator) (Staphylococcus aureus, UniProt Q2G2G2). Put plainly: SPR titration with purified SaeR ([…]); EMSA shows loss of hla promoter DNA binding.
Chain of SaeR (response regulator) (Q2G2G2 whole entry): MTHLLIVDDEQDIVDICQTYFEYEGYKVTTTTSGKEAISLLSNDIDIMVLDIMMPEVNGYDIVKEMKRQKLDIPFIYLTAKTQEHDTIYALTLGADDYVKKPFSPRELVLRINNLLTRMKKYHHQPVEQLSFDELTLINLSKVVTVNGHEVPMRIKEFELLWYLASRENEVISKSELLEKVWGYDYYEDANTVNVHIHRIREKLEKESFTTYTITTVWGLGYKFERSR

`CC(C(=O)O)c1cccc(Oc2ccccc2)c1` (stereo not shown) [fenoprofen]: binding was characterised by a dissociation constant (Kd) of 16.5 µM.

Source of the values: publication PMC10375895, “Repurposed Fenoprofen Targeting SaeR Attenuates Staphylococcus aureus Virulence in Implant-Associated Infections” (ACS Central Science, 2023).
